Measurements published in patent US7794723B2, “Antigenic peptides derived from telomerase” (GemVax AS, priority 1998, dated 2010).
Where no end group is shown, it is not given here.

Tests used:
[1] = tested on: hTERT expressing target cells (Jurkat) transfected with HLA-A2 (A2/K^b); settings: FIG. 1; T cells from mice primed with the peptide; target cells pulsed with control peptide (influenza 58-66); different effector to target ratios; 4 hours
[2] = tested on: peripheral blood T cells from a patient with colon cancer; assay: In vitro stimulation of peripheral blood T cells from a cancer patient, T cell proliferative assay (3H-thymidine); format: cell-based, human; settings: FIG. 2; peptide 30 μg/ml; 10^5 mononuclear cells; cultures without peptide as control
Experimental: In vitro culture was performed as follows: Triplicates of 105 mononuclear cells were incubated for […] in X-VIVO 10 medium supplemented with 15% pooled heat inactivated human serum in a humidified incubator in 5% CO2. Peptides were present throughout culture at a final concentration of 30 μg/ml in the medium. Cultures without peptide served as control. […] Furthermore, one component of the telomerase specific response in this patient is directed against the peptide with SEQ ID NO:4 described here. […] The figure depicts the results of conventional T cell proliferative assays, where peripheral blood mononuclear cells (10^5) were cultured with peptides as indicated for 7 days in triplicates before harvesting. To measure the proliferative capacity of the cultures, 3H-thymidine (3.7×10^4 Bq/well) was added to the culture overnight before harvesting. Values are given as mean counts per minute (cpm) of the triplicates.

[3] = tested on: tumor infiltrating lymphocytes (TILs) obtained from a patient with advanced pancreatic cancer; assay: Reactivity of tumor infiltrating lymphocytes (TILs), standard proliferation assay; format: cell-based, human; settings: CD3+, CD4+, CD8− T cell line
Excerpt: FIGS. 3 and 4 (FIG. 3 and FIG. 4) show the reactivity of tumor infiltrating lymphocytes (TILs) obtained from a patient with advanced pancreatic cancer. The T cells were obtained from a tumor biopsy and were successfully propagated in vitro to establish a T cell line. The T cell line was CD3+, CD4+ and CD8−, and proliferated specifically in response to the telomerase peptides. The results in FIG. 3 show T cells that recognize the peptides with SEQ ID NOs: 2 and 3 when compared to controls with medium alone. The results in FIG. 4 show T cells that recognize the peptide with SEQ ID NO:2. The TILs were expanded by co-culturing with recombinant human interleukin 2 (rIL-2) and tested after 14 days in standard proliferation assay using peptides with SEQ ID NOs: 2, 3, 4 and 7.

[4] = FIG. 3, compared to controls with medium alone

For ILAKFLHWL [SEQ ID NO:9], the “specific cytotoxicity (killing of HLA-A2 transfected Jurkat cells)” value [1] was “Specific cytotoxicity above background was observed at all effector to target ratios”.

With “GVPEYGCVVNLRKVVNF (GVPEYGCVVNLRKTVVNF) [SEQ ID NO:4]” the “proliferative response of T cells (3H-thymidine, mean cpm)” value [2] was “proliferative response above background values”.

For DGLRPIVNMDYVVGAR [SEQ ID NO:3], the “recognition of peptide by TIL T cells (proliferation)” value (from here on “recognition of peptide by TIL T cells”) [3, 4] was “recognize”.

With EARPALLTSRLRFIPK [SEQ ID NO:2] the “recognition of peptide by TIL T cells” value [3, 4] was “recognize” and the “recognition of peptide by TIL T cells” value ([3]; FIG. 4) was “recognize”.
